Four compounds from patent US5041567A, “Antibacterial monic acid derivatives” (Beecham Group plc, priority 1982, dated 1991) can be followed below.

The structures appear in SMILES notation. In brackets after ≈: the same amount, converted by molar mass. Like-named read-outs stand apart in the source and are kept apart here. Where only a bound is given, the exact number is not on record here.

For assay [1], the system named is M. suipneumoniae LABER. In words: MIC against mycoplasma in vitro. The class given is cell-based.
Assay [2] relates to M. suipneumoniae ATCC 25095. In words: MIC against mycoplasma in vitro. The class given is cell-based.
In assay [3] the test system is M. hyosynoviae ATCC 25591. Put plainly: MIC against mycoplasma in vitro. Format: cell-based.
In assay [4] the test system is M. pneumoniae ATCC 15492. In words: MIC against mycoplasma in vitro. The class given is cell-based.
In assay [5] the test system is E. coli NCTC 10418. In words: MIC against human bacteria in vitro. Format: cell-based. Particulars: E. coli NCTC 10418, agar with 5% chocolated horse blood, 18 hours, 37° C.
The test system of assay [6] is E. coli ESS. Put plainly: MIC against human bacteria in vitro. Format: cell-based. To be noted: E. coli ESS, 5% chocolated horse blood agar, 18 hours.
Assay [7] relates to Ps. aeruginosa NCTC 10662. Put plainly: MIC against human bacteria in vitro. The class given is cell-based. Particulars: Ps. aeruginosa NCTC 10662, 5% chocolated horse blood agar, 18 hours.
The subject of assay [8] is Haemophilus influenzae Wy21. Put plainly: MIC against human bacteria in vitro. The class given is cell-based. Particulars: Haemophilus influenzae Wy21, 5% chocolated horse blood agar, 18 hours.
The subject of assay [9] is Bacillus subtilis 6633. Put plainly: MIC against human bacteria in vitro. To be noted: Bacillus subtilis 6633, 5% chocolated horse blood agar, 18 hours. Format: cell-based.
Assay [10] relates to Corynebacterium xerosis 9755. In words: MIC against human bacteria in vitro. Format: cell-based. Particulars: Corynebacterium xerosis 9755, 5% chocolated horse blood agar, 18 hours.
In assay [11] the test system is Staph. aureus Russell. In words: MIC against human bacteria in vitro. The class given is cell-based. To be noted: Staph. aureus Russell, 5% chocolated horse blood agar, 18 hours.
Assay [12] concerns Strep. pyogenes R80/421-A. Put plainly: MIC against human bacteria in vitro. Particulars: Strep. pyogenes R80/421-A, 5% chocolated horse blood agar, 18 hours. The class given is cell-based.
Assay [13] concerns Strep. spp. 64/848-C. Put plainly: MIC against human bacteria in vitro. Format: cell-based. To be noted: Strep. spp. 64/848-C, 5% chocolated horse blood agar, 18 hours.
For assay [14], the system named is E. coli NCTC 10418. Put plainly: MIC against veterinary bacteria in vitro.
Procedure: (§1) The activity of the compounds of the Examples against various veterinarily important bacteria, was assayed in vitro using two-fold serial dilutions in Diagnostic Sensitivity Test Agar inoculated with 10^4 organisms.
Assay [15] has as its system E. coli E1. In words: MIC against veterinary bacteria in vitro.
Procedure: as §1
For assay [16], the system named is S. dublin S7. In words: MIC against veterinary bacteria in vitro.
Procedure: as §1
In assay [17] the test system is Bord. bronchiseptica B09. In words: MIC against veterinary bacteria in vitro.
Procedure: as §1
Assay [18] relates to Past. multocida PA1. In words: MIC against veterinary bacteria in vitro.
Procedure: as §1
In assay [19] the test system is Past. haemolytica PA5. Put plainly: MIC against veterinary bacteria in vitro.
Procedure: as §1
Assay [20] deals with Strep. uberis SPU1. Put plainly: MIC against veterinary bacteria in vitro.
Procedure: as §1
For assay [21], the system named is Strep. agalactiae SPA1. In words: MIC against veterinary bacteria in vitro.
Procedure: as §1
Assay [22] has as its system B. subtilis ATCC 6633. Put plainly: MIC against veterinary bacteria in vitro.
Procedure: as §1
[23] abbreviates: Mesomycoplasma hyopneumoniae, 144 h, M. suipneumoniae LABER, 6 days, 37° C., read-out: MIC.
[24] abbreviates: Escherichia coli, NCTC10418, read-out: MIC.
The mark [25] stands for this setting: Escherichia coli, read-out: MIC.
Where [26] appears, read: Pseudomonas aeruginosa, NCTC10662, read-out: MIC.
[27] abbreviates: Staphylococcus aureus, read-out: MIC.
The mark [28] stands for this setting: Streptococcus pyogenes, read-out: MIC.
Where [29] appears, read: Escherichia coli, NCTC10418, 18 h.
The mark [30] stands for this setting: Bordetella bronchiseptica, B09, 18 h.
The mark [31] stands for this setting: Pasteurella multocida, PA1, 18 h.
The mark [32] stands for this setting: Mannheimia haemolytica, PA5, 18 h.
Setting [33] is: Streptococcus uberis, SPU1, 18 h.
The mark [34] stands for this setting: Streptococcus agalactiae, SPA1, 18 h.
Where [35] appears, read: Bacillus subtilis, ATCC6633, 18 h.
The mark [36] stands for this setting: Mesomycoplasma hyopneumoniae, ATCC25095, 144 h, M. suipneumoniae ATCC 25095, 6 days, 37° C., read-out: MIC.
[37] abbreviates: Mycoplasmoides pneumoniae, ATCC15492, 144 h.

For the compound `CSc1cccc(-c2cnc(/C=C(\C)C[C@@H]3OC[C@H](C[C@@H]4O[C@H]4[C@@H](C)[C@H](C)O)[C@@H](O)[C@H]3O)o2)c1` [Example 22, 5-m-Methylthiophenyl-2-(1-normon-2-yl)oxazole A], the MIC was 0.5 µg/mL (≈ 1.02 µM) in assay [1] (setting [23]); 1 µg/mL (≈ 2.04 µM) in assay [2] (Mesomycoplasma hyopneumoniae, ATCC25095, 144 h); 1 µg/mL (≈ 2.04 µM) in [3] (144 h); 5 µg/mL (≈ 10.2 µM) in [4] (Mycoplasmoides pneumoniae, ATCC15492, 144 h, M. pneumoniae ATCC 15492, 6 days, 37° C., read-out: MIC); more than 128 µg/mL in assay [5] (setting [24]); 64 µg/mL (≈ 131 µM) in [6] (setting [25]). Further, the MIC in assay [7] (setting [26]) is more than 128 µg/mL; in assay [8] (read-out: MIC), 4 µg/mL (≈ 8.17 µM); in assay [9] (read-out: MIC) it was 4 µg/mL (≈ 8.17 µM); in assay [10] (read-out: MIC) it was more than 128 µg/mL; in assay [11] (setting [27]), 16 µg/mL (≈ 32.7 µM); in assay [12] (setting [28]), 8 µg/mL (≈ 16.3 µM). Moreover, the MIC in [13] (read-out: MIC) is 16 µg/mL (≈ 32.7 µM); in assay [14] (setting [29]), more than 80 µg/mL; in assay [15] (Escherichia coli, E1, 18 h), more than 80 µg/mL; in assay [16] (Salmonella enterica, S7, 18 h), more than 80 µg/mL; in assay [17] (setting [30]), 40 µg/mL (≈ 81.7 µM); in assay [18] (setting [31]), 20 µg/mL (≈ 40.8 µM). For the same compound, the MIC in assay [19] (setting [32]) was determined as 80 µg/mL (≈ 163 µM); in assay [20] (setting [33]), 0.156 µg/mL (≈ 0.319 µM); in assay [21] (setting [34]), 10 µg/mL (≈ 20.4 µM); in assay [22] (setting [35]) it was 0.625 µg/mL (≈ 1.28 µM).
Turning to `C/C(=C\c1ncc(-c2cccc(S(C)(=O)=O)c2)o1)C[C@@H]1OC[C@H](C[C@@H]2O[C@H]2[C@@H](C)[C@H](C)O)[C@@H](O)[C@H]1O` [Example 23, 5-m-Methylsulphonylphenyl-2-(1-normon-2-yl) oxazole A], the MIC is 0.5 µg/mL (≈ 0.959 µM) in [1] (setting [23]); 0.5 µg/mL (≈ 0.959 µM) in assay [2] (setting [36]); 1 µg/mL (≈ 1.92 µM) in assay [3] (144 h); 1 µg/mL (≈ 1.92 µM) in assay [4] (setting [37]); more than 64 µg/mL in assay [5] (setting [24]); 4 µg/mL (≈ 7.67 µM) in assay [6] (setting [25]). For the same compound, the MIC in assay [7] (setting [26]) was more than 64 µg/mL; in assay [8] (read-out: MIC), 1 µg/mL (≈ 1.92 µM); in [9] (read-out: MIC), 2 µg/mL (≈ 3.83 µM); in [10] (read-out: MIC) it was more than 128 µg/mL; in assay [11] (setting [27]), 16 µg/mL (≈ 30.7 µM); in assay [12] (setting [28]), 0.5 µg/mL (≈ 0.959 µM). Also, the MIC was 2 µg/mL (≈ 3.83 µM) in assay [13] (read-out: MIC); more than 80 µg/mL in assay [14] (setting [29]); more than 80 µg/mL in assay [15] (Escherichia coli, E1, 18 h); more than 80 µg/mL in [16] (Salmonella enterica, S7, 18 h); 40 µg/mL (≈ 76.7 µM) in [17] (setting [30]); 5 µg/mL (≈ 9.59 µM) in [18] (setting [31]). Further, the MIC in [19] (setting [32]) turned out to be 80 µg/mL (≈ 153 µM); in [20] (setting [33]), 0.625 µg/mL (≈ 1.2 µM); in assay [21] (setting [34]), 2.5 µg/mL (≈ 4.79 µM); in [22] (setting [35]), 1.25 µg/mL (≈ 2.4 µM).
As to `C/C(=C\c1ncc(-c2cccc([S+](C)[O-])c2)o1)C[C@@H]1OC[C@H](C[C@@H]2O[C@H]2[C@@H](C)[C@H](C)O)[C@@H](O)[C@H]1O` (stereo partly shown) [Example 25, 5-m-Methylsulphinylphenyl-2-(1-normon-2-yl)oxazole A], the MIC in assay [1] (Mesomycoplasma hyopneumoniae, 144 h) is 0.25 µg/mL (≈ 0.494 µM); in assay [2] (setting [36]) it was 0.5 µg/mL (≈ 0.989 µM); in assay [3] (144 h) it was 1 µg/mL (≈ 1.98 µM); in assay [4] (setting [37]) it was 2.5 µg/mL (≈ 4.94 µM); in [5] (setting [24]), more than 128 µg/mL; in [6] (setting [25]), 4 µg/mL (≈ 7.91 µM). Besides, the MIC is more than 128 µg/mL in [7] (setting [26]); 2 µg/mL (≈ 3.96 µM) in assay [8] (read-out: MIC); 2 µg/mL (≈ 3.96 µM) in assay [9] (read-out: MIC); 128 µg/mL (≈ 253 µM) in assay [10] (read-out: MIC); 32 µg/mL (≈ 63.3 µM) in assay [11] (setting [27]); 2 µg/mL (≈ 3.96 µM) in assay [12] (setting [28]). For the same compound, the MIC is 4 µg/mL (≈ 7.91 µM) in assay [13] (read-out: MIC); more than 80 µg/mL in assay [14] (setting [29]); more than 80 µg/mL in [15] (Escherichia coli, E1, 18 h); more than 80 µg/mL in [16] (Salmonella enterica, S7, 18 h); 40 µg/mL (≈ 79.1 µM) in assay [17] (setting [30]); 5 µg/mL (≈ 9.89 µM) in [18] (setting [31]). Further, the MIC was determined as 80 µg/mL (≈ 158 µM) in assay [19] (setting [32]), 0.625 µg/mL (≈ 1.24 µM) in assay [20] (setting [33]), 2.5 µg/mL (≈ 4.94 µM) in assay [21] (setting [34]) and 2.5 µg/mL (≈ 4.94 µM) in [22] (setting [35]).
For the compound `CC(=Cc1cnc(-c2ccccc2)o1)CC1OCC(CC2OC2C(C)C(C)O)C(O)C1O` (stereo not shown) [Example 35, 5-(1-Normon-2-yl)-2-phenyloxazole A], the MIC was more than 10 µg/mL in assay [1] (M. suipneumoniae LABER, 6 days, 37° C.); more than 10 µg/mL in assay [2] (M. suipneumoniae ATCC 25095, 6 days, 37° C.); more than 10 µg/mL in [3] (M. hyosynoviae ATCC 25591, 6 days, 37° C.); more than 10 µg/mL in assay [4] (M. pneumoniae ATCC 15492, 6 days, 37° C.); more than 128 µg/mL in assay [5]; 128 µg/mL (≈ 289 µM) in [6]. In addition, the MIC in assay [7] is more than 128 µg/mL; in assay [8], 128 µg/mL (≈ 289 µM); in [9], more than 128 µg/mL; in assay [10], more than 128 µg/mL; in assay [11] it was more than 128 µg/mL; in assay [12], more than 128 µg/mL. The MIC was more than 128 µg/mL in assay [13]; more than 80 µg/mL in [14] (E. coli NCTC 10418, Diagnostic Sensitivity Test Agar, 18 hours, 37° C.); more than 80 µg/mL in [15] (E. coli E1, Diagnostic Sensitivity Test Agar, 18 hours, 37° C.); more than 80 µg/mL in assay [16] (S. dublin S7, Diagnostic Sensitivity Test Agar, 18 hours); more than 80 µg/mL in [17] (Bord. bronchiseptica B09, Diagnostic Sensitivity Test Agar, 18 hours); 80 µg/mL (≈ 180 µM) in [18] (Past. multocida PA1, Diagnostic Sensitivity Test Agar, 18 hours). Moreover, the MIC in assay [19] (Past. haemolytica PA5, Diagnostic Sensitivity Test Agar, 18 hours) is more than 80 µg/mL; in assay [20] (Strep. uberis SPU1, Diagnostic Sensitivity Test Agar, 18 hours) it was 80 µg/mL (≈ 180 µM); in assay [21] (Strep. agalactiae SPA1, Diagnostic Sensitivity Test Agar, 18 hours), more than 80 µg/mL; in assay [22] (B. subtilis ATCC 6633, Diagnostic Sensitivity Test Agar, 18 hours), more than 80 µg/mL.
